Data on 17 compounds can be found in patent publication US8106050B2, “Derivatives of pyrrolo-pyrazines having a kinase inhibitory activity and their biological applications” (Centre National de la Recherche Scientifique (C.N.R.S.), priority 2002, dated 2012).

The target in one data set is CDK1/cyclin B. Put plainly: CDK1/cyclin B kinase assay (histone H1, 15 μM ATP). It counts as biochemical, starfish (Marthasterias glacialis). As to conditions: 15 μM ATP, Table 1. On the procedure:
(§1) Blank values were subtracted and activities calculated as pmoles of phosphate incorporated for a 10 min. incubation. […] Controls were performed with appropriate dilutions of dimethylsulfoxide. In a few cases phosphorylation of the substrate was assessed by autoradiography after SDS-PAGE.
CDK1/cyclin B was extracted in homogenisation buffer from M phase starfish (Marthasterias glacialis) oocytes and purified by affinity chromatography on p9^CKShs1-sepharose beads, from which it was eluted by free p9^CKShs1. […] ATP (3,000 Ci/mmol; 1 mCi/ml) in a final volume of 30 μl. After 10 min. incubation at 30° C., 25 μl aliquots of supernatant were spotted onto P81 phosphocellulose papers and treated as described above.
(§2) Kinases were assayed as above described in the presence of increasing concentrations of aloisines.

The next data set deals with CDK5/p25 (Homo sapiens, UniProt Q00535). The experiment in a line: CDK5/p25 kinase assay (histone H1, 15 μM ATP). It counts as biochemical, mammalian. As to conditions: Table 1. On the procedure:
as §1
CDK5/p25 was reconstituted by mixing equal amounts of recombinant mammalian CDK5 and p25 expressed in E. coli as GST (Glutathione-S-transferase) fusion proteins and purified by affinity chromatography on glutathione-agarose (p25 is a truncated version of p35, the 35 kDa CDK5 activator). Its activity was assayed in buffer C as described for CDK1/cyclin B.
as §2

The target in another data set is GSK-3α/β. Put plainly: GSK-3 kinase assay (GS-1 peptide, 15 μM ATP). The settings on record: 15 μM ATP, Table 1; read-out: IC50 GSK-3. It counts as biochemical, porcine. On the procedure:
as §1
GSK-3α/β was either purified from porcine brain or expressed in and purified from insect Sf9 cells. […] ATP (3,000 Ci/mmol; 1 mCi/ml) in a final volume of 30 μl. After 30 min. incubation at 30° C., 25 μl aliquots of supernatant were spotted onto 2.5×3 cm pieces of Whatman P81 phosphocellulose paper, and, 20 sec. later, the filters were washed five times (for at least 5 min. each time) in a solution of 10 ml phosphoric acid/liter of water. The wet filters were counted in the presence of 1 ml ACS (Amersham) scintillation fluid.
as §2

One may read the IC50 as the concentration that gives 50% inhibition. The melting point is the temperature of the solid-liquid transition.

Bounds are passed on as bounds.

CDK5/p25, sequence (Q00535 whole entry, species assumed): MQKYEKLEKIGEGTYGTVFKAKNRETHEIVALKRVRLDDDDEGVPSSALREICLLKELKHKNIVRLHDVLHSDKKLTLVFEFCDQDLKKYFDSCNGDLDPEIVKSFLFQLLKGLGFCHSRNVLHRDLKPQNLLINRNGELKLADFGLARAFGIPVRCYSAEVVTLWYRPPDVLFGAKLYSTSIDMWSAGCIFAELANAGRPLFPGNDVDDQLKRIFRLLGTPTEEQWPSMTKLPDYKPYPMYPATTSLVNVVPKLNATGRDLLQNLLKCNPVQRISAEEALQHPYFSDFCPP
CDK5/p25, sequence (Q15078 99-307 partner limits assumed, species assumed): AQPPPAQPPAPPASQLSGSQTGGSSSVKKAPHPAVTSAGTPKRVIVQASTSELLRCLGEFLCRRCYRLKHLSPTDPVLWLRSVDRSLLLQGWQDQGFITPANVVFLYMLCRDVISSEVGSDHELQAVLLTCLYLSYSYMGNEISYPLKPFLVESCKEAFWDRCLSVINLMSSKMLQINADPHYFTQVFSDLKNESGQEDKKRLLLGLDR

For `c1csc(-c2cc3nccnc3[nH]2)c1` [2 (RP6), 6-(2-Thienyl)[5H]pyrrolo[2,3-b]pyrazine], the melting point amounted to 260.3 °C. In addition, at CDK1/cyclin B, it took 7 µM to reach half-maximal inhibition (IC50). In addition, at CDK5/p25, the midpoint of inhibition, the IC50, lay at 2 µM. Besides, the IC50 on GSK-3α/β was 1.2 µM.

In the case of `Br.Oc1ccccc1-c1cc2nccnc2[nH]1` [11 (RP109), 6-(2-Hydroxyphenyl)[5H]pyrrolo[2,3-b]pyrazine hydrobromide], the melting point is 250 °C (dec.). At CDK1/cyclin B, half-maximal inhibition (IC50) required 2.5 µM. For the same compound, the IC50 on CDK5/p25 turned out to be 3 µM. For the same compound, at GSK-3α/β, the IC50 came out at 6.5 µM.

On to `CN(C)c1ccc(-c2cc3nccnc3[nH]2)cc1` [26 (RP129), 6-(4-Dimethylaminophenyl)[5H]pyrrolo[2,3-b]pyrazine], for which the melting point was 271 °C (dec.). Also, it took 20 µM to reach half-maximal inhibition against CDK1/cyclin B (IC50). Besides, at CDK5/p25, the IC50 was > 100 µM. The 50% inhibitory concentration (IC50) at GSK-3α/β was 12 µM.

For the compound `c1cnc2[nH]c(-c3ccsc3)cc2n1` [3 (RP128)], the melting point is 230 °C (dec.). The IC50 against CDK1/cyclin B was 2.3 µM. Moreover, the midpoint of inhibition on CDK5/p25, the IC50, lay at 1 µM. Moreover, on GSK-3α/β, the IC50 was determined as 0.8 µM.

`c1ccc(-c2cc3nccnc3[nH]2)cc1` [5 (RP7), 6-Phenyl[5H]pyrrolo[2,3-b]pyrazine] showed a melting point of 216 °C. This compound yielded an IC50 on CDK1/cyclin B of 5 µM. Moreover, the IC50 against CDK5/p25 stood at 4 µM. At GSK-3α/β, the IC50 came to 2.3 µM.

Regarding `c1ccc(-c2cc3nccnc3[nH]2)nc1` [4 (RP13), 6-(2-Pyridyl)[5H]pyrrolo[2,3-b]pyrazine], the melting point turned out to be 233.1 °C. Further, the IC50 against CDK1/cyclin B came out at 21 µM. On CDK5/p25, this compound gave an IC50 of 53 µM. Also, at GSK-3α/β, the IC50 was found to be 15 µM.

Regarding `Cc1c(-c2ccc(OS(=O)(=O)N(C)C)cc2)[nH]c2nccnc12` [31 (RP125), 6-(4-Dimethylaminosulfamoyloxyphenyl)-7-methyl[5H]pyrrolo[2,3-b]pyrazine], the figures for the IC50 against CDK1/cyclin B, on CDK5/p25 and at GSK-3α/β were 0.7 µM, 0.9 µM and 0.5 µM, respectively.

Turning to `c1coc(-c2cc3nccnc3[nH]2)c1` [1 (RP19), 6-(2-Furyl)[5H]pyrrolo[2,3-b]pyrazine], the melting point is 232.6 °C. Also, the midpoint of inhibition on CDK1/cyclin B, the IC50, lay at 12 µM. In addition, half-maximal inhibition against CDK5/p25 (IC50) was put at 9.3 µM. In addition, the IC50 at GSK-3α/β is 15 µM.

With `COc1ccc(-c2c(C)c3nccnc3n2C2CCCCC2)cc1` [46 (RP98), 6-(4-Methoxyphenyl)-7-methylcyclohexyl[5H]pyrrolo[2,3-b]pyrazine], the IC50 on CDK1/cyclin B was 5 µM; on CDK5/p25, > 100 µM; on GSK-3α/β it was 6.8 µM.

Consider `c1ccc(Cc2c(-c3ccccc3)[nH]c3nccnc23)cc1` [44 (RP92), 7-Benzyl-6-phenyl[5H]pyrrolo[2,3-b]pyrazine], for which the melting point came to 209.8 °C. Also, the IC50 against CDK1/cyclin B was determined as 2 µM. The IC50 at CDK5/p25 was > 100 µM. In addition, the IC50 at GSK-3α/β stood at 1 µM.

For `COc1ccc(-c2cc3nccnc3[nH]2)cc1` [14 (RP11), 6-(4-Methoxyphenyl)[5H]pyrrolo[2,3-b]pyrazine], the melting point is 256.1 °C (dec.). This compound also had an IC50 against CDK1/cyclin B of 2 µM. Half-maximal inhibition at CDK5/p25 (IC50) was put at 4 µM. For the same compound, the IC50 at GSK-3α/β came to 1.1 µM.

Turning to `Clc1cc(Cl)cc(-c2cc3nccnc3[nH]2)c1` [20 (RP15), 6-(3,5-Dichlorophenyl)[5H]pyrrolo[2,3-b]pyrazine], the melting point was 252 °C (dec.). For the same compound, the IC50 at CDK1/cyclin B was > 100 µM. The IC50 at CDK5/p25 was > 100 µM. Moreover, the IC50 on GSK-3α/β is > 100 µM.

With `CCCCc1c(-c2ccc(Cl)cc2)[nH]c2nccnc12` [40 (RP108), 7-n-Butyl-6-(4-chlorophenyl)[5H]pyrrolo[2,3-b]pyrazine], the melting point stood at 200 °C. For the same compound, the midpoint of inhibition on CDK1/cyclin B, the IC50, lay at 0.2 µM. Besides, the IC50 against CDK5/p25 is > 100 µM. Also, the IC50 at GSK-3α/β turned out to be 5.9 µM.

For the compound `FC(F)(F)c1ccc(-c2cc3nccnc3[nH]2)cc1` [22 (RP8), 6-(4-Trifluoromethylphenyl)[5H]pyrrolo[2,3-b]pyrazine], the melting point is 238 °C (dec.). The same compound registered an IC50 at CDK1/cyclin B of 6 µM. The IC50 on CDK5/p25 was > 100 µM. Further, on GSK-3α/β, the IC50 worked out at 7.2 µM.

The compound `CCCCCCCc1c(-c2ccc(OC)cc2)[nH]c2nccnc12` [41 (RP111), 7-n-Heptyl-6-(4-methoxyphenyl)[5H]pyrrolo[2,3-b]pyrazine] displayed a melting point of 132.5 °C. Further, the IC50 at CDK1/cyclin B was determined as 7 µM. The IC50 at CDK5/p25 was > 100 µM. The IC50 at GSK-3α/β is > 10 µM.

For the compound `Cc1c(-c2ccc(Cl)cc2)n(C2CCCCC2)c2nccnc12` [47 (RP99), 6-(4-Chlorophenyl)-7-methylcyclohexyl[5H]pyrrolo[2,3-b]pyrazine], the IC50 against CDK1/cyclin B was 10 µM; on CDK5/p25 it was > 100 µM; on GSK-3α/β, 8 µM.

As for `COc1ccc(-c2c(C)c3nccnc3n2C2CC2)cc1` [42 (RP104), 6-(4-Methoxyphenyl)-7-methylcyclopropyl[5H]pyrrolo[2,3-b]pyrazine], the IC50 was 1 µM at CDK1/cyclin B, > 100 µM against CDK5/p25 and 1.1 µM on GSK-3α/β.
